What is called inhibition is the share of the control response that was lost under treatment.

Structures are written as SMILES.

These results are taken from patent publication US20240287172A1, “PROTEIN BINDERS TO IRHOM2 EPITOPES” (SCIRHOM GMBH, priority 2019, published 2024).

The assay deals with PMA-induced release of endogenous IL-6R from human U-937 cells. Description: ELISA-based IL-6R release assay, PMA-induced, U-937 cells. In kind it is cell-based. Conditions: U-937, 1 h, PMA 62.5 ng/ml, Batimastat at 10 μM. As to the method:
In brief, on day 1, Nunc black MaxiSorp® 96-well plates (Thermo Fisher Scientific, USA) were coated overnight with 100 μl per well of mouse anti-human IL-6R capture antibody (provided as part of the DuoSet ELISA kit) at 2 μg/ml TBS at 4° C. On day 2, the capture antibody solution was removed and MaxiSorp® plates were blocked with 300 μl per well of TBS, 1% BSA at room temperature for 1-2 hours. Meanwhile, 80,000 U-937 (European Collection of Authenticated Cell Cultures, UK) cells in 80 μl of normal growth medium were seeded in each well of Greiner CELLSTAR V-bottom 96-well plates (Thermo Fisher Scientific, USA) and pre-incubated with 20 μl per well of standard growth medium supplemented with Batimastat (BB94, Abcam, UK) at 50 μM as positive control (for a final concentration of 10 μM in the resulting 100 μl sample volume), mouse IgG antibody (Thermo Fisher Scientific, USA) at 5 μg/ml as isotype control (for a final […]) at 37° C., 5% CO2 for 30 minutes. In case of stimulation controls, 20 μl of standard growth medium without test articles were added. […] Using an infinite M1000 (Tecan Group, Switzerland) microplate reader, the fluorescence of each well was collected at an excitation wavelength of 435 nm and an emission wavelength of 555 nm. […]
(An ELISA detects its analyte on a solid surface through an enzyme-linked reagent.)

As to `CNC(=O)[C@H](Cc1ccccc1)NC(=O)[C@H](CC(C)C)[C@H](CSc1cccs1)C(=O)NO` [Batimastat], the inhibition at 10 µM is, setting by setting: (murine (m) and chimeric (ch) antibodies and IgG at 3 μg/ml) 91.6%; (recombinant murine antibodies and IgG at 1 μg/ml) 86.6%.
